Measured values as given in patent publication US20160243142A1, “AVICIN D FOR TREATMENT OF MANTLE CELL LYMPHOMA” (Research Development Foundation, priority 2015, published 2016).
“Also recorded” adds a separate entry of the source.

Assays:
[1] = test system: Mino mantle cell lymphoma xenograft; assay: Tumor growth delay in Mino mantle cell lymphoma xenograft bearing NODscid mice; format: in vivo; settings: for PR (partial response): N = 10; for Log10 cell kill (750 mm^3): activity threshold 0.7
Source text: 80 NOD .CB17 -Prkdcscid/J (NOD scid) (JAX, West Sacramento, Calif.) 4-6 week old female mice were transferred to the in vivo research laboratory in West Sacramento, CA. The mice were ear notched for identification and housed in individually and positively ventilated polycarbonate cages with HEPA filtered air at a density of five mice per cage. Bed-o'cobs® bedding was used and cages were changed every two weeks. The animal room was illuminated entirely with artificial fluorescent lighting, with a controlled 12 h light/dark cycle (7 am to 7 pm light). The normal temperature and relative humidity ranges in the animal rooms were 22±4° C. and 50±15%, respectively. The animal rooms were set to have 15 air exchanges per hour. Filtered tap water, acidified to a pH of 2.8 to 3.1, and LabDiet 5LL4 were provided ad libitum.
Mino Mantle Cell Lymphoma cells (ATCC catalogue #CRL-3000™, Manassas, Va.) were maintained in RPMI 1640 with 2 mM 1-glutamine, 25 mM HEPES, 4.5 g/L D-glucose (Invitrogen, San Diego, Calif.) supplemented with 10% ES cell certified fetal bovine serum (Hyclone, Logan, Utah). The cells were suspended at 1×10^8 cells/ml in serum free media, and 80 mice were subcutaneously injected in the rear right flanks with 10^7 cells in 100 μL. Tumor volumes were monitored with ULTRA-Cal IV digital calipers (Fowler, Newton, Mass.), and 50 animals were tumor size rank matched into five cohorts of 10 animals with mean tumor volumes of approximately 150 mm^3.
(§1) Animals were treated according to Table 3 below. Animals were dosed in the opposite flank opposing the tumors at 10 mL/kg. Daily clinical observations were made and body weights and tumor measurements were performed thrice weekly. Animals were maintained on study until their tumor burden reached the study endpoint of 2000 mm^3. Animals were euthanized at the study endpoint with terminal cardiocentesis performed for serum collection and plasma preparation in K2EDTA. Tumors were excised and fixed in 10% formalin.
Animals were euthanized when the tumors had reached the 2000 mm^3 study endpoint, and the tumors were harvested, weighed, and placed in 10% formalin. Table 4 summarizes the clinical observation schedule and the body weight and tumor measurement schedule performed.
Tumor volumes were calculated from digital caliper raw data by using the formula: […]
The value w (width) was the smaller of two perpendicular tumor axes and the value l (length) was the larger of two perpendicular axes.
The tumor growth delay (TGD) method was used to analyze drug treatment effects on time (days) to tumor endpoint (TTE) for Mino tumor response. The tumor endpoint volume for TTE analysis was set at 2000 mm^3 and TTE was defined in days by the formula: […]
The value for b was the (y) intercept and m was the slope of the line calculated from a linear regression of log-transformed tumor growth data for each tumor calculated from a minimum of three time points preceding 2000 mm^3 and a minimum of one that surpassed the time point for 2000 mm^3. Treatment initiated when tumors reached approximately 150 mm^3, and animals were drugged according to Table 3. Tumors were monitored until animals were euthanized due to tumors reaching a 2000 mm^3 endpoint, and the study was concluded on day 59 post drug treatment initiation.
Treatment efficacy was determined by comparing TTE values calculated for each treatment group and by calculating percent tumor growth delay for each treatment group:
T represented the median TTE in days for a drug treatment group and C represented the median TTE in days for the control group. Statistical significance for median TTE values for treatment group comparisons was determined by the Log-rank test with GraphPad Prism 5.0 software (GraphPad, La Jolla, Calif.). A 95% confidence value was used for two-tailed statistical analyses. Log-rank survival curves were plotted based on survival to 2000 mm3 to visualize the statistical significance of the median TTE values between treatment groups. […]

[2] = Toxicity / body weight in Mino xenograft bearing NODscid mice; format: in vivo; settings: for tolerability of dosing protocols: 0.5, 1.0 and 1.0-2.0 mg/kg s.c. daily; for animals removed from the study due to drug toxicity / treatment related deaths (TR): Group 5: escalating 1.0-2.0 mg/kg s.c., N = 10
Description: as §1
Non-treatment related deaths (NTR), non-treatment metastatic related deaths (NTRm), and treatment related deaths (TR) were monitored. Animal body weight was monitored three times weekly throughout the study and mean % body weight loss was calculated and plotted with GraphPad Prism 5.0. Animals displaying >20% body weight loss were to be euthanized and recorded as TRs.

[3] = approved dose; alternative treatment 1.9 months; cited from earlier work
[4] = Group 1 vs. Group 3: vehicle control vs. 0.5 mg/kg s.c.
[5] = Group 1 vs. Group 4: vehicle control vs. 1.0 mg/kg s.c.
[6] = Group 1 vs. Group 5: vehicle control vs. 1.0-2.0 mg/kg s.c.
[7] = Group 3: 0.5 mg/kg s.c. daily days 1-33
[8] = Group 3 vs. Group 4: 0.5 mg/kg vs. 1.0 mg/kg s.c.
[9] = Group 3 vs. Group 5: 0.5 mg/kg vs. 1.0-2.0 mg/kg s.c.
[10] = Group 4: 1.0 mg/kg s.c. daily days 1-2, 5-33
[11] = Group 4 vs. Group 5: 1.0 mg/kg vs. 1.0-2.0 mg/kg s.c.
[12] = Group 5: escalating 1.0-2.0 mg/kg s.c. daily days 1-2, 5-33
[13] = 3.3 mg/kg i.v. days 1 and 8 (Group 2)

SMILES: C=CC(C)(O)CC/C=C(\CO)C(=O)O[C@@H]1C(C)O[C@@H](O[C@](C)(C=C)CC/C=C(\CO)C(=O)O[C@H]2C[C@@]3(C(=O)O[C@@H]4OC(CO)[C@@H](O)C(O)C4O[C@@H]4OC(C)[C@H](O[C@@H]5O[C@@H](CO)C(O)[C@@H]5O)C(O[C@@H]5OC(CO)[C@@H](O)C(O)C5O)C4O)C(CC2(C)C)C2=CCC4[C@@]5(C)CC[C@H](O[C@@H]6OC(CO[C@@H]7OC(C)[C@H](O)C(O)C7O[C@@H]7OC[C@@H](O)C(O)C7O)[C@@H](O)C(O)C6NC(C)=O)C(C)(C)C5CC[C@@]4(C)[C@]2(C)C[C@H]3O)C(O)C1O (some centres unmarked) [AVD-001]
- Hazard Ratio [1, 4]: 3.159
- Median survival Ratio (control/treated) [1, 4]: 0.7412
- Hazard Ratio [1, 5]: 3.492
- Median survival Ratio (control/treated) [1, 5]: 0.6941
- Hazard Ratio [1, 6]: 10.36
- Median survival Ratio (control/treated) [1, 6]: 0.5675
- Median Survival (to 2000 mm^3) ([1]; Group 3: 0.5 mg/kg s.c.): 29.2 days
- % TGD (tumor growth delay) [1, 7]: 34.9%
- Median TTE (time to tumor endpoint, 2000 mm^3) [1, 7]: 29.2 days
- PR (partial response) ([1]; Group 3: 0.5 mg/kg s.c.): 3
- Log10 cell kill (750 mm^3) ([1]; Group 3: 0.5 mg/kg s.c.): 0.57
- Hazard Ratio [1, 8]: 1.588
- Median survival Ratio [1, 8]: 0.9365
- Hazard Ratio [1, 9]: 5.491
- Median survival Ratio [1, 9]: 0.7657
- Median Survival (to 2000 mm^3) ([1]; Group 4: 1.0 mg/kg s.c.): 31.18 days
- % TGD (tumor growth delay) [1, 10]: 44.1%
- Median TTE (time to tumor endpoint, 2000 mm^3) [1, 10]: 31.2 days
- PR (partial response) ([1]; Group 4: 1.0 mg/kg s.c.): 4
- Log10 cell kill (750 mm^3) ([1]; Group 4: 1.0 mg/kg s.c.): 0.45
- Hazard Ratio [1, 11]: 1.674
- Median survival Ratio [1, 11]: 0.8177
- Median Survival (to 2000 mm^3) ([1]; Group 5: 1.0-2.0 mg/kg s.c.): 38.14 days
- PR (partial response) ([1]; Group 5: 1.0 to 2.0 mg/kg s.c.): 6
- Log10 cell kill (750 mm^3) ([1]; Group 5: 1.0 to 2.0 mg/kg s.c.): 0.89
- % TGD (tumor growth delay) [1, 12]: 76.2%
- Median TTE (time to tumor endpoint, 2000 mm^3) [1, 12]: 38.1 days
- nadir mean % body weight change ([2]; 0.5 mg/kg dose cohort, day 2): −4.43%
- nadir mean % body weight change ([2]; 1.0 mg/kg dose cohort, day 3): −11.82%
- tolerability of dosing protocols [2]: generally well-tolerated
- tolerability of dosing protocols ([2]; listed as Avicin): generally well tolerated
- body weight loss ([2]; Group 3 (0.5 mg/kg s.c.), peaked at day 2): 4%
- animals removed from the study due to drug toxicity / treatment related deaths (TR) [2]: Two
- animals removed from the study due to drug toxicity / treatment related deaths (TR) ([2]; listed as Avicin): two and Two
- transient body weight loss ([2]; Groups 4 and 5 (1.0 and 1.0-2.0 mg/kg s.c.), dosing suspended days 3 and 4): 10%
- nadir average % body weight change ([2]; escalating dose 1.0-2.0 cohort, day 3): −10.42%
- injection site findings ([2]; several Group 3, 4 and 5 mice, s.c.): irritation and/or bleeding at the injection site

SMILES: COc1cccc2c1C(=O)c1c(O)c3c(c(O)c1C2=O)C[C@@](O)(C(=O)CO)C[C@@H]3O[C@H]1C[C@H](N)[C@H](O)[C@H](C)O1 [Adriamycin, doxorubicin, reference compound]
- day by which animals were removed from study [2, 13]: ≤ 16 days
- toxicity of positive control [2, 13]: significant body weight loss; also recorded: severe toxicity
- toxicity of positive control ([2]; 3.3 mg/kg i.v. days 1 and 8 (Group 2), listed as adriamycin): significant treatment-related body weight loss

SMILES: CO[C@H]1C[C@@H]2CC[C@@H](C)[C@@](O)(O2)C(=O)C(=O)N2CCCC[C@H]2C(=O)O[C@H]([C@H](C)C[C@@H]2CC[C@@H](OC(=O)C(C)(CO)CO)[C@H](OC)C2)CC(=O)[C@H](C)/C=C(\C)[C@@H](O)[C@@H](OC)C(=O)[C@H](C)C[C@H](C)/C=C/C=C/C=C/1C [Torisel, temsirolimus]
- average time lived without disease getting worse [3]: 4.8 months
